According to US20120015907A1, “Furopyridine compounds and uses thereof” (NOVARTIS AG, priority 2010, published 2012):

target: T1, HCV polymerase (Hepatitis C virus genotype 1b, UniProt Q9WMX2); assay: biochemical; conditions: polymerase assay of Biological Example 1; read-out: NS5B polymerase IC50
T1 construct: (His)6 (C)
Excerpt: A number of assays have been published to assess these activities. A general method that assesses the gross increase of HCV virus in culture was disclosed in U.S. Pat. No. 5,738,985 to Miles et al. In vitro assays have been reported in Ferrari et al. Jnl. of Vir., 73:1649-1654, 1999; Ishii et al., Hepatology, 29:1227-1235, 1999; Lohmann et al., Jnl of Bio. Chem., 274:10807-10815, 1999; and Yamashita et al., Jnl. of Bio. Chem., 273:15479-15486, 1998.
WO 97/12033, filed on Sep. 27, 1996, by Emory University, listing C. Hagedorn and A. Reinoldus as inventors, which claims priority to U.S. Provisional Patent Application Ser. No. 60/004,383, filed on September 1995, described an HCV polymerase assay that can be used to evaluate the activity of the of the compounds described herein. Another HCV polymerase assay has been reported by Bartholomeusz, et al., Hepatitis C Virus (HCV) RNA polymerase assay using cloned HCV non-structural proteins; Antiviral Therapy 1996:1(Supp 4) 18-24.

Row | Compound | IC50
1 | 6-{[3-(1,1-Dioxo-tetrahydro-1lambdathiophen-2-yl)-propyl]-methanesulfonyl-amino}-5-ethyl-2-(4-fluoro-phenyl)-furo[2,3-b]pyridine-3-carboxylic acid methylamide [Example 22.99] | 15 nM
2 | CNC(=O)c1c(-c2ccc(F)cc2)oc2nc3c(cc12)[C@H](C)C[C@H](O)CN3S(C)(=O)=O (single isomer, unassigned) [Example 33] | 170 nM
3 | CNC(=O)c1c(-c2ccc(F)cc2)oc2nc(N(C)S(C)(=O)=O)c(I)cc12 [Example 2, 2-(4-Fluoro-phenyl)-5-iodo-6-(methanesulfonyl-methyl-amino)-furo[2,3-b]pyridine-3-carboxylic acid methylamide] | 163 nM
4 | CNC(=O)c1c(-c2ccccn2)oc2nc(N(C)S(C)(=O)=O)c(I)cc12 [Example 2.3, 5-iodo-N-methyl-6-(N-methylmethylsulfonamido)-2-(pyridin-2-yl)furo[2,3-b]pyridine-3-carboxamide] | 408 nM
5 | C=C(c1cc2c(C(=O)NC)c(-c3ccc(F)cc3)oc2nc1N(C)S(C)(=O)=O)C(F)(F)F [Example 2.5, 2-(4-fluorophenyl)-N-methyl-6-(N-methylmethylsulfonamido)-5-(3,3,3-trifluoroprop-1-en-2-yl)furo[2,3-b]pyridine-3-carboxamide] | 662 nM
6 | CN(c1nc2oc(-c3ccc(F)cc3)c(C(N)=O)c2cc1C1CC1)S(C)(=O)=O [Example 2.6] | 297 nM
7 | CNC(=O)c1c(-c2ccc(C(F)(F)F)cc2)oc2nc(N(C)S(C)(=O)=O)c(I)cc12 [Example 2.91, 5-iodo-N-methyl-6-(N-methylmethylsulfonamide)-2-(4-(trifluoromethyl)phenyl)furo[2,3-b]pyridine-3-carboxamide] | 802 nM
8 | CNC(=O)c1c(-c2ccc(F)cc2)oc2nc(N(C)S(C)(=O)=O)c(C)cc12 [Example 2.92, 2-(4-fluorophenyl)-N,5-dimethyl-6-(N-methylmethylsulfonamido)furo[2,3-b]pyridine-3-carboxamide] | 256 nM
9 | CNC(=O)c1c(-c2ccc(F)cc2)oc2nc(N(C)S(C)(=O)=O)c(CCCC(=O)N3CCC[C@H]3C(N)=O)cc12 [Example 4.4, (S)-5-(4-(2-carbamoylpyrrolidin-1-yl)-4-oxobutyl)-2-(4-fluorophenyl)-N-methyl-6-(N-methylmethylsulfonamido)furo[2,3-b]pyridine-3-carboxamide] | 200 nM
10 | CNC(=O)c1c(-c2ccc(F)cc2)oc2nc(N(C)S(C)(=O)=O)c(CCCC(O)CO)cc12 (stereo not shown) [Example 4.92, 5-(4,5-dihydroxypentyl)-2-(4-fluorophenyl)-N-methyl-6-(N-methylmethylsulfonamido)furo[2,3-b]pyridine-3-carboxamide] | 223 nM
11 | CNC(=O)c1c(-c2ccc(F)cc2)oc2nc(N(C)S(C)(=O)=O)c(CCCC(C)O)cc12 (stereo not shown) [Example 4.93, 2-(4-fluorophenyl)-5-(4-hydroxypentyl)-N-methyl-6-(N-methylmethylsulfonamido)furo[2,3-b]pyridine-3-carboxamide] | 216 nM
12 | CNC(=O)c1c(-c2ccc(F)cc2)oc2nc(N(C)S(C)(=O)=O)c(CCCS(C)(=O)=O)cc12 [Example 4.94, 2-(4-fluorophenyl)-N-methyl-6-(N-methylmethylsulfonamido)-5-(3-(methylsulfonyl)propyl)furo[2,3-b]pyridine-3-carboxamide] | 208 nM

More lines, in order of falling IC50, values ahead:

Row | IC50 | Compound
13 | 132 nM | C=C(C)c1cc2c(C(=O)NC)c(-c3ccc(F)cc3)oc2nc1N(C)S(C)(=O)=O [Example 2.4, 2-(4-fluorophenyl)-N-methyl-6-(N-methylmethylsulfonamido)-5-(prop-1-en-2-yl)furo[2,3-b]pyridine-3-carboxamide]
14 | 132 nM | CNC(=O)c1c(-c2ccc(F)cc2)oc2nc(N(C)S(C)(=O)=O)c(CCCC(N)=O)cc12 [Example 4.3, 5-(4-amino-4-oxobutyl)-2-(4-fluorophenyl)-N-methyl-6-(N-methylmethylsulfonamido)furo[2,3-b]pyridine-3-carboxamide]
15 | 128 nM | C=CCc1cc2c(C(=O)NC)c(-c3ccc(F)cc3)oc2nc1N(C)S(C)(=O)=O [Example 4.2, 5-allyl-2-(4-fluorophenyl)-N-methyl-6-(N-methylmethylsulfonamido)furo[2,3-b]pyridine-3-carboxamide]
16 | 113 nM | CNC(=O)c1c(-c2ccc(F)cc2)oc2nc(N(C)S(C)(=O)=O)c(CCCCC(=O)N3CCC[C@H]3C(=O)OC)cc12 [Example 4.6, (S)-methyl 1-(5-(2-(4-fluorophenyl)-3-(methylcarbamoyl)-6-(N-methylmethylsulfonamido)furo[2,3-b]pyridin-5-yl)pentanoyl)pyrrolidine-2-carboxylate]
17 | 112 nM | CNC(=O)c1c(-c2ccc(F)cc2)oc2nc(N(C)S(C)(=O)=O)c(CCCC(=O)N3CCC[C@H]3C(=O)OC)cc12 [Example 4.1, (S)-methyl 1-(4-(2-(4-fluorophenyl)-3-(methylcarbamoyl)-6-(N-methylmethylsulfonamido)furo[2,3-b]pyridin-5-yl)butanoyl)pyrrolidine-2-carboxylate]
18 | 93 nM | CCc1cc2c(C(=O)NC)c(-c3ccc(F)cc3)oc2nc1N(CCCNS(=O)(=O)c1ccccc1)S(C)(=O)=O [23.6]
19 | 78 nM | CCCc1cc2c(C(=O)NC)c(-c3ccc(F)cc3)oc2nc1N(C)S(C)(=O)=O [Example 4.96, 2-(4-fluorophenyl)-N-methyl-6-(N-methylmethylsulfonamido)-5-propylfuro[2,3-b]pyridine-3-carboxamide]
20 | 71 nM | CNC(=O)c1c(-c2ccc(C)cc2C)oc2nc(N(C)S(C)(=O)=O)c(C3CC3)cc12 [Example 2.99, 5-cyclopropyl-2-(2,4-dimethylphenyl)-N-methyl-6-(N-methylmethylsulfonamido)furo[2,3-b]pyridine-3-carboxamide]
21 | 51 nM | CNC(=O)c1c(-c2ccc(F)cc2)oc2nc(N(C)S(C)(=O)=O)c(CCCCC(=O)N3CCC[C@H]3C(N)=O)cc12 [Example 4.8, (S)-5-(5-(2-carbamoylpyrrolidin-1-yl)-5-oxopentyl)-2-(4-fluorophenyl)-N-methyl-6-(N-methylmethylsulfonamido)furo[2,3-b]pyridine-3-carboxamide]
22 | 44 nM | CCNC(=O)c1c(-c2ccc(F)cc2)oc2nc(N(C)S(C)(=O)=O)c(C3CC3)cc12 [Example 2.7, 5-cyclopropyl-N-ethyl-2-(4-fluorophenyl)-6-(N-methylmethylsulfonamido)furo[2,3-b]pyridine-3-carboxamide]
23 | 34 nM | CCOC(=O)CCCCc1cc2c(C(=O)NC)c(-c3ccc(F)cc3)oc2nc1N(C)S(C)(=O)=O [Example 3, Ethyl 5-(2-(4-fluorophenyl)-3-(methylcarbamoyl)-6-(N-methylmethylsulfonamido)furo[2,3-b]pyridin-5-yl)pentanoate]
24 | 30 nM | CNC(=O)c1c(-c2ccccc2)oc2nc(N(C)S(C)(=O)=O)c(C3CC3)cc12 [Example 2.8, 5-cyclopropyl-N-methyl-6-(N-methylmethylsulfonamido)-2-phenylfuro[2,3-b]pyridine-3-carboxamide]
25 | 16 nM | CNC(=O)c1c(-c2ccc(F)cc2)oc2nc(N(C)S(C)(=O)=O)c(CCCCC(N)=O)cc12 [Example 4.95, 5-(5-amino-5-oxopentyl)-2-(4-fluorophenyl)-N-methyl-6-(N-methylmethylsulfonamido)furo[2,3-b]pyridine-3-carboxamide]
